Legend:
Format in all cases: cell-based, mouse
WT astrocytes = experiment: Cell survival assay, Crystal violet staining, WT astrocytes; conditions: 24 hours, untreated cells set to 100%
Method: (§1) Cells were seeded on 96-wells plate at a density of 5000 cells per well. Astrocytes were seeded following coating with 0.001% PDL.

Mut MEFs = experiment: JC1 staining of intact and damaged mitochondria (mitochondrial membrane potential); conditions: Mut MEFs
Method: Mut MEFs were treated or not for 6 hours with the indicated concentrations of p8G5 (blue), pre084 (purple), or NE-100 (yellow), washed and stained with Hoechst and JC1 for 30 minutes followed by image acquisition using In-Cell-Analyzer-2000. Shown is the % of red/green JC1 integrated intensity per cell relative to that in untreated WT cells of 2-4 independent experiments.
Following, the cells were washed, stained with Hoechst and JC-1 fluorescent dyes for 30 minutes, and subjected to image acquisition using In-Cell-Analyzer-2000. Shown is cellular content of damaged mitochondria (JC1 green channel, red bars), intact mitochondria (JC1 red channel, green bars) and damaged to intact mitochondria ratio (blue bars). Values of control (vehicle treated) cells was set to 100%.
Mut MEFs were treated with the indicated compounds at 10 μM for 24 hours followed by staining with fluorogenic dyes and image-based single-cell analysis. Shown is average effect on ROS level from at least 3-independent experiments ±SEM. […] Mut MEFs were incubated or not for 24 hours with 10 μM of the indicated compound, washed and stained with Crystal Violet. […] Mut MEFs were incubated or not for 24 hours with 10 μM of the indicated compound, washed and stained with JC1 and Hoechst followed by image-based single-cell analysis. Values of untreated cells were set as 100%. Shown is average of at least 3 independent experiments for each parameter compared to its matching control ±SEM. * p<0.05. Putative targets are indicated.
Mut MEFs were incubated or not for 24 hours with 10 μM of the indicated compounds, washed and stained with Hoechst and JC1 followed by image-based single-cell analysis. […] Mut MEFs were incubated or not with the indicated concentrations of the indicated compounds for 2 hours followed by addition of 50 ng/ml Tunicamycin (Tun) for additional 22 hours, stained with Crystal Violet followed by measurement of absorbance at 570 nm.
MEFs were seeded on 1% gelatin-coated 96-wells plate at a density of 5000 cells per well. 24 hours post-plating the cells were incubated with the tested compounds for additional 24 hours. Several DMSO-treated cells (control) were included in each plate at different locations. Following, the cells were stained by addition of fluorogenic dyes for further 30 minutes incubation at 37° C. […] CellROX was used together with Hoechst and CFSE; JC1 was used together with Hoechst. Cells were washed with Hank's balanced salt solution (HBSS) which was used for images acquisition using IN Cell Analyzer 2000 (GE Healthcare, Pitsburgh, Pa., USA). IN Cell Developer Toolbox 1.9.1 software (GE Healthcare) was used for analysis which included cells segmentation using Hoechst and/or CFSE signals. For analysis of JC1 staining, integrated intensity of green and red emissions were used for detection of damaged and intact mitochondria, respectively.

Mut primary astrocytes = experiment: Oxygen consumption (OCR), primary astrocytes; conditions: 1 or 10 μm, 6 hours, normalized to cell number (FIGS. 17B-C)
Method: Shown is average relative quantity (RQ) of 2-6 independent experiments normalized to their untreated controls ±SEM. […] Values of ATP-linked respiration (FIG. 17B) and maximal respiration (FIG. 17C) were analyzed and normalized to cell number.
The data were normalized to cell number, obtained by Crystal Violet staining, or to mtDNA content.

Mut astrocytes = experiment: Survival under Tunicamycin-induced ER stress, Crystal Violet, astrocytes; conditions: 20-50 μM, 50 ng/ml Tunicamycin last 22 hours (FIG. 19)
Method: WT and Mut astrocytes were treated or not for 24 hours with 20, 30 or 50 μM of the indicated Sig-1R binders in the presence of 50 ng/ml Tunicamycin (Tun) during the last 22 hours. Following, the cells were washed, fixated and stained with Crystal Violet (CV) followed by measurement of absorbance at 570 nm. Shown is % of CV staining relative to cells not treated with tunicamycin nor Sig-1R binder ±SEM of 3 independent experiments, *p<0.05.
as §1

Cc1cccc(OCCCCCN2CCOCC2)c1 [H8 (p8G5), 4-[5-(3-methylphenoxy)pentyl]morpholine]
Survival (%) ± SEM WT astrocytes (WT astrocytes; 1 μM): 132 ± 10.7% | Survival (%) ± SEM WT astrocytes (WT astrocytes; 10 μM): 102 ± 3.8% | Survival (%) ± SEM WT astrocytes (WT astrocytes; 30 μM): 99 ± 3.2% | red/green JC1 signal (mitochondria with high to low membrane potential) (Mut MEFs; 1 μM and 10 μM, 6 hours (FIG. 6)): increased the ratio between the content of mitochondria with high to low membrane potential | effect on mitochondrial health (JC1, intact and damaged mitochondria) (Mut MEFs; 10 μM, 24 hours (FIG. 14C)): significant beneficial effect on mitochondrial health | ATP-linked and maximal respiration in mutant astrocytes (Mut primary astrocytes): increased both ATP-linked and maximal respiration | survival rate of Mut astrocytes under ER-stress conditions (Mut astrocytes): increased the survival rate

Source: patent US20200061076A1, “METHODS OF TREATING LEUKODYSTROPHIES” (Ramot at Tel-Aviv University Ltd., priority 2017, published 2020)
